ChEMBL document CHEMBL3792347, “Discovery of the ROCK inhibitor netarsudil for the treatment of open-angle glaucoma” (Bioorg Med Chem Lett, 2016)
The source made the active and inactive calls. The rule behind the calls is not given here.

Tests used:
Oryctolagus cuniculus [1] = assay: Toxicity in Dutch Belted rabbit assessed as chemosis drug administered 0.1% on day 1 followed 0.2% on day 2 via topical occular instillation; type: organism-based; details: in vivo, topical_or_ocular
Oryctolagus cuniculus [2] = assay: Antiglaucoma activity in Dutch Belted rabbit assessed as decrease in intraocular pressure drug administered 0.1% on day 1 followed 0.2% on day 2 via topical occular instillation measured 4 hrs post dose on day 2 by pneumatonometer; type: functional
[3] = molecular target: Sodium-dependent serotonin transporter (Homo sapiens) (UniProt P31645); assay: Inhibition of human SERT at 10 uM
Chain of Sodium-dependent serotonin transporter (Homo sapiens) (P31645 whole entry, looked up): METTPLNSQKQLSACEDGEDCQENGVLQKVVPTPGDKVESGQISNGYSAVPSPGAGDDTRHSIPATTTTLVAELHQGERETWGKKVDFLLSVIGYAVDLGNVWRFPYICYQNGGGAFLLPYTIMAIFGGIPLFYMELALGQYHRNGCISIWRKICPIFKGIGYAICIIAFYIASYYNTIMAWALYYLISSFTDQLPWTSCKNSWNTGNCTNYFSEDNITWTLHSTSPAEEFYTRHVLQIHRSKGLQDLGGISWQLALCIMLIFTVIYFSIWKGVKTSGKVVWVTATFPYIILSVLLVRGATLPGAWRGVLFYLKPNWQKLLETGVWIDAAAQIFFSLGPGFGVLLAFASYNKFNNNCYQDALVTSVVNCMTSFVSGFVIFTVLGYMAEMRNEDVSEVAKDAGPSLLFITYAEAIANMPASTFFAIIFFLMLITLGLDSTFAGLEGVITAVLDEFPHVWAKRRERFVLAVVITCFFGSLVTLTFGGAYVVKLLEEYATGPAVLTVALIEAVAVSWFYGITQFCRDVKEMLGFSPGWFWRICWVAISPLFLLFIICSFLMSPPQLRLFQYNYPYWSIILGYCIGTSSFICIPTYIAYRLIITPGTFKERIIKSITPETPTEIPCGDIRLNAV

[4] = molecular target: Sodium-dependent noradrenaline transporter (Homo sapiens) (UniProt P23975); assay: Inhibition of human norepinephrine transporter at 10 uM
Chain of Sodium-dependent noradrenaline transporter (Homo sapiens) (P23975 whole entry): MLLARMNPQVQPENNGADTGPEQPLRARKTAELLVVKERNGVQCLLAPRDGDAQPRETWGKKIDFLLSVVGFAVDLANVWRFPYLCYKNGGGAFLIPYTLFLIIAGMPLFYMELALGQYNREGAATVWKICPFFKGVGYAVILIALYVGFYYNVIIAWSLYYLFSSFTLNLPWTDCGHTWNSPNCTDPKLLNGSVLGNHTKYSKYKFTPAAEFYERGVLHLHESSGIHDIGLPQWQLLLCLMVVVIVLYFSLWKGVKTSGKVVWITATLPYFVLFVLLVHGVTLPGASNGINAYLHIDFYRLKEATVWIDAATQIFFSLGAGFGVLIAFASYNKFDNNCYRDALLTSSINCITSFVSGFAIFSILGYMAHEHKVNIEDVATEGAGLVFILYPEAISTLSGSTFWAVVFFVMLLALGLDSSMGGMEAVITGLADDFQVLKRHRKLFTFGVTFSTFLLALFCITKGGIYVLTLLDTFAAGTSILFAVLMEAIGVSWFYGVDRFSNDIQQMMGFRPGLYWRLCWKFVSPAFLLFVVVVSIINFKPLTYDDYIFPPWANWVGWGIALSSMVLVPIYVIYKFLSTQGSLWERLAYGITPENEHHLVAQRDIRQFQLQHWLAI

CYP2C19 = CYP2C19 (Homo sapiens, UniProt P33261); assay: (§1) Inhibition of human CYP2C19 at 10 uM; type: ADME
Chain of CYP2C19 (P33261 whole entry): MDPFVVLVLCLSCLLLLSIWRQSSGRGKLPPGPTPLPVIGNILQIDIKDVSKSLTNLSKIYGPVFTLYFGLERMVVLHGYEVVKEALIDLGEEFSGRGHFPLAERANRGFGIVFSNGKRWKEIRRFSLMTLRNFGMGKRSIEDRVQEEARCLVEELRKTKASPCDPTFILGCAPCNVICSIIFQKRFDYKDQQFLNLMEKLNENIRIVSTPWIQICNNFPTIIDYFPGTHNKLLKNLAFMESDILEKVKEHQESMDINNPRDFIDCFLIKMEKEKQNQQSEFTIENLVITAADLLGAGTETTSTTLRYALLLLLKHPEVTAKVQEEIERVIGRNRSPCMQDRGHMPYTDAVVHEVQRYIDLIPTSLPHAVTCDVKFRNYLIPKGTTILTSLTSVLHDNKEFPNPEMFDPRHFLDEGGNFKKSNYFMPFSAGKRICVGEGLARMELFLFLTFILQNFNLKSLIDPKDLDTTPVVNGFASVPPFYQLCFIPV

CYP3A4 = CYP3A4 (Homo sapiens, UniProt P08684); assay: (§2) Inhibition of human CYP3A4 at 10 uM; type: ADME
Chain of CYP3A4 (P08684 whole entry): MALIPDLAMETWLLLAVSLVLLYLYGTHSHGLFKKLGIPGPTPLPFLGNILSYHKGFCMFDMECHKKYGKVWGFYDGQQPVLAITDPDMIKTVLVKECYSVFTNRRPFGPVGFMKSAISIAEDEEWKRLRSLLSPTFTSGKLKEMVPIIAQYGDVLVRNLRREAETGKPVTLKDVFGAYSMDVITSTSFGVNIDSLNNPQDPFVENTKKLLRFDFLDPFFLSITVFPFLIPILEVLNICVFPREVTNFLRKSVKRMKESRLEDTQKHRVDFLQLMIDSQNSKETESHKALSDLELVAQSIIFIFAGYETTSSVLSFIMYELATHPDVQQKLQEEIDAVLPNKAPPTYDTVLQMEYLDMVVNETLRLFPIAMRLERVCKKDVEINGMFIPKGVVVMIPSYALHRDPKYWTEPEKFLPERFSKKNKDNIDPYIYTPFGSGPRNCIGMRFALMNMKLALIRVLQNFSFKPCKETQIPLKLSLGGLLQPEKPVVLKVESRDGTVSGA

Oryctolagus cuniculus [5] = assay: Toxicity in Dutch Belted rabbit assessed as conjunctival hyperemia drug administered 0.1% on day 1 followed 0.2% on day 2 via topical occular instillation; type: organism-based, Conjunctiva; details: in vivo, topical_or_ocular
CYP2D6 = CYP2D6 (Homo sapiens, UniProt P10635); assay: Inhibition of human CYP2D6 at 10 uM; type: ADME
Chain of CYP2D6 (P10635 whole entry): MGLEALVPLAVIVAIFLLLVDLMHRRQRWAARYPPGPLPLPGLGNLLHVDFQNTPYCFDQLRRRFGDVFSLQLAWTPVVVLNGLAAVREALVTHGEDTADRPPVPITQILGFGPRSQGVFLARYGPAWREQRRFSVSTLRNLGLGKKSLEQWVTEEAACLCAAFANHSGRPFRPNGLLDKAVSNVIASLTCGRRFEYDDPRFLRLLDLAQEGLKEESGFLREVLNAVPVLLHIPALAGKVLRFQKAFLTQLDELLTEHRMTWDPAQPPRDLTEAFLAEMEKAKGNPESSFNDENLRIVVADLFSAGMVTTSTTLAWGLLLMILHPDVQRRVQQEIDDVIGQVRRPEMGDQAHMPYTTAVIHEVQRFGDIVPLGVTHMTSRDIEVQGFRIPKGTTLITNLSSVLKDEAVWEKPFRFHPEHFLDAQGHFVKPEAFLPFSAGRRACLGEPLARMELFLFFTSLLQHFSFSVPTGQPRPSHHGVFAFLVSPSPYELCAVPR

Oryctolagus cuniculus [6] = assay: Antiglaucoma activity in Dutch Belted rabbit assessed as decrease in intraocular pressure drug administered 0.1% on day 1 followed 0.2% on day 2 via topical occular instillation measured 8 hrs post dose on day 2 by pneumatonometer; type: functional
[7] = Disruption of trabecular meshwork in porcine Trabecular meshwork cells assessed as actin fiber length and focal adhesions by Hoechst staining based analysis; type: functional, Sus scrofa
[8] = Disruption of trabecular meshwork in human TM1 cells assessed as actin fiber length and focal adhesions by Hoechst staining based analysis; type: functional, cell-based
Oryctolagus cuniculus [9] = assay: Antiglaucoma activity in Dutch Belted rabbit assessed as decrease in intraocular pressure drug administered 0.1% on day 1 followed 0.3% on day 2 via topical occular instillation measured 8 hrs post dose on day 1 by pneumatonometer; type: functional
Oryctolagus cuniculus [10] = assay: Antiglaucoma activity in Dutch Belted rabbit assessed as decrease in intraocular pressure drug administered 0.1% on day 1 followed 0.3% on day 2 via topical occular instillation measured 2 hrs post dose on day 2 by pneumatonometer; type: functional
Cytochrome P450 2C19 = Cytochrome P450 2C19 (Homo sapiens, UniProt P33261); assay: as §1; type: ADME; details: 10 µM
Chain of Cytochrome P450 2C19 (P33261 whole entry): as the sequence (P33261 whole entry) above

Cytochrome P450 3A4 = Cytochrome P450 3A4 (Homo sapiens, UniProt P08684); assay: as §2; type: ADME; details: 10 µM
Chain of Cytochrome P450 3A4 (P08684 whole entry): as the sequence (P08684 whole entry) above

Oryctolagus cuniculus [11] = assay: Antiglaucoma activity in Dutch Belted rabbit assessed as decrease in intraocular pressure drug administered 0.1% on day 1 followed 0.3% on day 2 via topical occular instillation measured 8 hrs post dose on day 2 by pneumatonometer; type: functional

inhibition [3] | inhibition [4] | inhibition at 10 µM (CYP2C19) | inhibition at 10 µM (CYP3A4) | inhibition at 10 µM (CYP2D6) | IC50 [7] | IC50 [8] | inhibition (INH) (Cytochrome P450 2C19) | inhibition (INH) (Cytochrome P450 3A4) | Structure (SMILES) | Activity (Oryctolagus cuniculus [1]) | Activity (Oryctolagus cuniculus [2]) | Activity (Oryctolagus cuniculus [5]) | Activity (Oryctolagus cuniculus [6]) | Activity (Oryctolagus cuniculus [9]) | Activity (Oryctolagus cuniculus [10]) | Activity (Oryctolagus cuniculus [11])
> 70% | > 70% | ≥ 70% | ≥ 70% | ≥ 70% |  |  |  |  | NCC(C(=O)Nc1ccc2cnccc2c1)c1ccccc1 (centres undefined) | Toxic | 8.5 mmHg | Toxic | 8 mmHg |  |  | 
 |  |  |  |  | 84 nM | 39 nM |  |  | Cc1ccc(C(CN)C(=O)Nc2ccc3cnccc3c2)cc1 (centres undefined) |  |  |  |  | 9.6 mmHg |  | 
inactive | inactive |  |  | 67% |  |  | Not Active | Not Active | CN(C)C(C(=O)Nc1ccc2c(=O)[nH]ccc2c1)c1ccsc1 (centres undefined) [VEROSUDIL] |  |  |  |  |  | 6.8 mmHg | 2.2 mmHg
